This is an account of results in PMC5218480 (PLoS ONE, 2017).

The test deals with MV-4-11 cells. Nature of the test: Gene expression microarray analysis (Affymetrix PrimeView) and GSEA. It is filed as cell-based, human. Details: RFU PODN (11730768_x_at) / Fold change /veh PODN (11730768_x_at) / RFU LINC00158 (11744669_a_at) / Fold change /veh LINC00158 (11744669_a_at) / RFU DUSP10 (11751237_a_at) / Fold change /veh DUSP10 (11751237_a_at) / RFU ID3 (11757404_x_at) / Fold change /veh ID3 (11757404_x_at) / RFU PLEKHG5 (11737974_s_at) / Fold change /veh PLEKHG5 (11737974_s_at) / RFU LRRC4B (11730491_at) / Fold change /veh LRRC4B (11730491_at) / RFU GIMAP4 (11747438_a_at) / Fold change /veh GIMAP4 (11747438_a_at) / RFU KRT8 (11758183_x_at) / Fold change /veh KRT8 (11758183_x_at) / RFU CNN1 (11734310_a_at) / Fold change /veh CNN1 (11734310_a_at) / RFU VPS37D (11726825_at) / Fold change /veh VPS37D (11726825_at) / RFU C10orf10 (11716522_x_at) / Fold change /veh C10orf10 (11716522_x_at) / RFU KIR2DL2 /// KIR2DL4 /// KIR2DL5A /// KIR2DL5B /// KIR2DS1 /// KIR2DS2 /// KIR2DS3 /// KIR2DS4 /// KIR3DL3 /// KIR3DL3 /// KIR3DS1 (11738374_at) / Fold change /veh KIR2DL2 /// KIR2DL4 /// KIR2DL5A /// KIR2DL5B /// KIR2DS1 /// KIR2DS2 /// KIR2DS3 /// KIR2DS4 /// KIR3DL3 /// KIR3DL3 /// KIR3DS1 (11738374_at) / RFU C1QL1 (11718748_at) / Fold change /veh C1QL1 (11718748_at) / RFU TMPRSS4 (11747572_a_at) / Fold change /veh TMPRSS4 (11747572_a_at) / RFU HAMP (11756126_x_at) / Fold change /veh HAMP (11756126_x_at) / RFU RNFT2 (11725882_a_at) / Fold change /veh RNFT2 (11725882_a_at) / RFU NR4A2 (11747474_a_at) / Fold change /veh NR4A2 (11747474_a_at) / RFU ABCC12 (11746883_a_at) / Fold change /veh ABCC12 (11746883_a_at) / RFU TMEM136 (11760407_x_at) / Fold change /veh TMEM136 (11760407_x_at) / RFU CLDN22 /// WWC2 (11732394_at) / Fold change /veh CLDN22 /// WWC2 (11732394_at) / RFU HLA-DPB1 (11760878_x_at) / Fold change /veh HLA-DPB1 (11760878_x_at) / RFU SPINT1 (11716480_a_at) / Fold change /veh SPINT1 (11716480_a_at) / RFU GAP43 (11754022_s_at) / Fold change /veh GAP43 (11754022_s_at) / RFU A4GNT (11735810_at) / Fold change /veh A4GNT (11735810_at) / RFU PRB3 (11715151_x_at) / Fold change /veh PRB3 (11715151_x_at) / RFU TUBB4B (11761932_at) / Fold change /veh TUBB4B (11761932_at) / RFU CAPN14 (11732068_a_at) / Fold change /veh CAPN14 (11732068_a_at) / RFU TMCC2 (11721928_a_at) / Fold change /veh TMCC2 (11721928_a_at) / RFU IRGQ (11745062_a_at) / Fold change /veh IRGQ (11745062_a_at) / RFU FAM174B (11720279_a_at) / Fold change /veh FAM174B (11720279_a_at) / RFU TMPRSS4 (11748680_a_at) / Fold change /veh TMPRSS4 (11748680_a_at) / RFU FAM212B (11763350_a_at) / Fold change /veh FAM212B (11763350_a_at) / RFU PLEKHG5 (11743358_a_at) / Fold change /veh PLEKHG5 (11743358_a_at) / RFU ZSCAN30 (11745921_a_at) / Fold change /veh ZSCAN30 (11745921_a_at) / RFU CMKLR1 (11741424_a_at) / Fold change /veh CMKLR1 (11741424_a_at) / RFU LOC101060620 /// MAPK8IP1 (11723275_at) / Fold change /veh LOC101060620 /// MAPK8IP1 (11723275_at) / RFU SPTSSB (11747773_x_at) / Fold change /veh SPTSSB (11747773_x_at) / RFU PRSS12 (11739890_at) / Fold change /veh PRSS12 (11739890_at) / RFU BIN1 (11741810_x_at) / Fold change /veh BIN1 (11741810_x_at) / RFU WNT11 (11732464_a_at) / Fold change /veh WNT11 (11732464_a_at) / RFU C10orf10 (11716521_a_at) / Fold change /veh C10orf10 (11716521_a_at) / RFU C5orf56 (11738089_at) / Fold change /veh C5orf56 (11738089_at) / RFU CYB561 (11721691_x_at) / Fold change /veh CYB561 (11721691_x_at) / RFU ANKRD19P (11752326_a_at) / Fold change /veh ANKRD19P (11752326_a_at) / RFU OR2T12 /// OR2T33 /// OR2T8 (11738714_s_at) / Fold change /veh OR2T12 /// OR2T33 /// OR2T8 (11738714_s_at) / RFU VCAN (11748164_a_at) / Fold change /veh VCAN (11748164_a_at) / RFU JSRP1 (11732532_at) / Fold change /veh JSRP1 (11732532_at) / RFU KRTAP10-11 (11738290_x_at) / Fold change /veh KRTAP10-11 (11738290_x_at) / RFU MYO3A (11730013_a_at) / Fold change /veh MYO3A (11730013_a_at) / RFU EBF3 (11725865_a_at) / Fold change /veh EBF3 (11725865_a_at) / RFU CAMK2N1 (11719241_x_at) / Fold change /veh CAMK2N1 (11719241_x_at) / RFU C5orf56 (11738088_a_at) / Fold change /veh C5orf56 (11738088_a_at) / RFU OLFML3 (11715873_a_at) / Fold change /veh OLFML3 (11715873_a_at) / RFU LOC100653217 /// NTM (11731650_a_at) / Fold change /veh LOC100653217 /// NTM (11731650_a_at) / RFU MAPK11 (11762145_a_at) / Fold change /veh MAPK11 (11762145_a_at) / RFU FIZ1 (11724087_x_at) / Fold change /veh FIZ1 (11724087_x_at) / RFU OASL (11726364_x_at) / Fold change /veh OASL (11726364_x_at) / RFU SOX15 (11748057_x_at) / Fold change /veh SOX15 (11748057_x_at) / RFU CD79A (11719716_a_at) / Fold change /veh CD79A (11719716_a_at) / RFU HIST1H1D (11736915_at) / Fold change /veh HIST1H1D (11736915_at) / RFU CASKIN2 (11723855_a_at) / Fold change /veh CASKIN2 (11723855_a_at) / RFU LOC730098 (11760151_x_at) / Fold change /veh LOC730098 (11760151_x_at) / RFU OR4N2 (11742367_at) / Fold change /veh OR4N2 (11742367_at) / RFU PRRT2 (11749266_a_at) / Fold change /veh PRRT2 (11749266_a_at) / RFU SNX32 (11753110_a_at) / Fold change /veh SNX32 (11753110_a_at) / RFU CDHR5 (11726645_a_at) / Fold change /veh CDHR5 (11726645_a_at) / RFU RCAN1 (11760418_a_at) / Fold change /veh RCAN1 (11760418_a_at) / RFU FAM167A (11723789_a_at) / Fold change /veh FAM167A (11723789_a_at) / RFU FAM26E (11764081_at) / Fold change /veh FAM26E (11764081_at) / RFU ISYNA1 (11749810_s_at) / Fold change /veh ISYNA1 (11749810_s_at) / RFU ACY1 (11761880_at) / Fold change /veh ACY1 (11761880_at) / RFU 11764098_at / Fold change /veh 11764098_at / RFU SAMD14 (11745864_x_at) / Fold change /veh SAMD14 (11745864_x_at) / RFU NPB (11741838_a_at) / Fold change /veh NPB (11741838_a_at) / RFU TMPRSS6 (11731388_a_at) / Fold change /veh TMPRSS6 (11731388_a_at) / RFU KRTAP10-2 (11738614_at) / Fold change /veh KRTAP10-2 (11738614_at) / RFU ARHGAP8 /// PRR5-ARHGAP8 (11727945_x_at) / Fold change /veh ARHGAP8 /// PRR5-ARHGAP8 (11727945_x_at) / RFU KRTAP5-7 /// NADSYN1 (11734609_at) / Fold change /veh KRTAP5-7 /// NADSYN1 (11734609_at) / RFU RASL12 (11751679_a_at) / Fold change /veh RASL12 (11751679_a_at) / RFU CDKN2B (11736163_a_at) / Fold change /veh CDKN2B (11736163_a_at) / RFU PRF1 (11729649_at) / Fold change /veh PRF1 (11729649_at) / RFU, ZNF638 /// ZNF638-IT1 / Fold change vs veh, ZNF638 /// ZNF638-IT1 / RFU, PANK3 / Fold change vs veh, PANK3 / RFU, SH3YL1 / Fold change vs veh, SH3YL1 / RFU, ZEB2 / Fold change vs veh, ZEB2 / RFU, NRIP1 / Fold change vs veh, NRIP1 / RFU, PTTG1IP / Fold change vs veh, PTTG1IP / RFU, CAPN2 / Fold change vs veh, CAPN2 / RFU, MED14 / Fold change vs veh, MED14 / RFU, SNORA58 / Fold change vs veh, SNORA58 / RFU, C1orf63 / Fold change vs veh, C1orf63 / RFU, LRRFIP1 / Fold change vs veh, LRRFIP1 / RFU, NDUFAF7 / Fold change vs veh, NDUFAF7 / RFU, SLC12A2 / Fold change vs veh, SLC12A2 / RFU, IBTK / Fold change vs veh, IBTK / RFU, ESF1 / Fold change vs veh, ESF1 / Fold change vs veh, TMEM50B / RFU, TAOK1 / Fold change vs veh, TAOK1 / RFU, ACBD3 / Fold change vs veh, ACBD3 / RFU, TMA16 / Fold change vs veh, TMA16 / RFU, RWDD3 / Fold change vs veh, RWDD3 / RFU, BCAT1 / Fold change vs veh, BCAT1 / RFU, EDEM3 / Fold change vs veh, EDEM3 / RFU, TMEM33 / Fold change vs veh, TMEM33 / RFU, WDR75 / Fold change vs veh, WDR75 / RFU, AHCTF1 / Fold change vs veh, AHCTF1 / RFU, TFRC / Fold change vs veh, TFRC / RFU, ZDHHC17 / Fold change vs veh, ZDHHC17 / RFU, NOM1 / Fold change vs veh, NOM1 / RFU, ARL8B / Fold change vs veh, ARL8B / RFU, ZBTB11 / Fold change vs veh, ZBTB11 / RFU, TAMM41 / Fold change vs veh, TAMM41 / RFU, KIAA1704 /// LOC100996395 / Fold change vs veh, KIAA1704 /// LOC100996395 / RFU, ING1 / Fold change vs veh, ING1 / RFU, TRMT61B / Fold change vs veh, TRMT61B / RFU, FUBP3 / Fold change vs veh, FUBP3 / RFU, TP53 / Fold change vs veh, TP53 / RFU, TNKS2 / Fold change vs veh, TNKS2 / RFU, ZFP14 / Fold change vs veh, ZFP14 / RFU, ACTR2 / Fold change vs veh, ACTR2 / RFU, PPP3R1 / Fold change vs veh, PPP3R1 / RFU, PIK3R1 / Fold change vs veh, PIK3R1 / RFU, HNRNPA1 / Fold change vs veh, HNRNPA1 / RFU, RNF170 / Fold change vs veh, RNF170 / RFU, ZNF28 / Fold change vs veh, ZNF28 / RFU, RNGTT / Fold change vs veh, RNGTT / RFU, OGT / Fold change vs veh, OGT / RFU, BRD1 / Fold change vs veh, BRD1 / RFU, MARS / Fold change vs veh, MARS / RFU, ZNF655 / Fold change vs veh, ZNF655 / RFU, FAHD1 / Fold change vs veh, FAHD1 / RFU, BDP1 / Fold change vs veh, BDP1 / RFU, LRRCC1 / Fold change vs veh, LRRCC1 / RFU, ARID1A / Fold change vs veh, ARID1A / RFU, ZNF146 / Fold change vs veh, ZNF146 / RFU, ZNF330 / Fold change vs veh, ZNF330 / RFU, GPN3 / Fold change vs veh, GPN3 / RFU, C9orf123 / Fold change vs veh, C9orf123 / RFU, N4BP2L2 / Fold change vs veh, N4BP2L2 / RFU, ARFIP1 / Fold change vs veh, ARFIP1 / RFU, FAM179B / Fold change vs veh, FAM179B / RFU, BCL10 / Fold change vs veh, BCL10 / RFU, UHRF1BP1L / Fold change vs veh, UHRF1BP1L / RFU, BET1 / Fold change vs veh, BET1 / RFU, CNOT2 / Fold change vs veh, CNOT2 / RFU, ZNF268 / Fold change vs veh, ZNF268 / Fold change vs veh, ZNF507 / RFU, DGCR2 / Fold change vs veh, DGCR2 / RFU, WDSUB1 / Fold change vs veh, WDSUB1 / Fold change vs veh, HSP90B1 /// MIR3652 / RFU, ADSS / Fold change vs veh, ADSS / RFU, GK / Fold change vs veh, GK / RFU, ZNF148 / Fold change vs veh, ZNF148 / RFU, TAF9 / Fold change vs veh, TAF9 / RFU, SLC1A5 / Fold change vs veh, SLC1A5 / RFU, SLMO2 / Fold change vs veh, SLMO2 / RFU, ABCC4 / Fold change vs veh, ABCC4 / RFU, LOC101060439 /// RAP1B / Fold change vs veh, LOC101060439 /// RAP1B / RFU, RFX7 / Fold change vs veh, RFX7 / RFU, GTPBP10 / Fold change vs veh, GTPBP10 / RFU, CNEP1R1 / Fold change vs veh, CNEP1R1 / RFU, BIVM-ERCC5 /// ERCC5 / Fold change vs veh, BIVM-ERCC5 /// ERCC5 / RFU, ILF3 / Fold change vs veh, ILF3 / RFU 11762660_at / Fold change /veh 11762660_at / RFU VCAN (11757783_s_at) / Fold change /veh VCAN (11757783_s_at) / RFU DDX43 (11728927_at) / Fold change /veh DDX43 (11728927_at) / RFU KRT8 (11758188_x_at) / Fold change /veh KRT8 (11758188_x_at) / RFU NKD1 (11759106_at) / Fold change /veh NKD1 (11759106_at) / RFU SRD5A1 (11742802_a_at) / Fold change /veh SRD5A1 (11742802_a_at) / RFU TPSAB1 /// TPSB2 (11721975_s_at) / Fold change /veh TPSAB1 /// TPSB2 (11721975_s_at) / RFU GSTM3 (11746129_a_at) / Fold change /veh GSTM3 (11746129_a_at) / RFU IL23R (11737362_x_at) / Fold change /veh IL23R (11737362_x_at) / RFU TMEM51 (11727254_a_at) / Fold change /veh TMEM51 (11727254_a_at) / RFU PIWIL2 (11732686_x_at) / Fold change /veh PIWIL2 (11732686_x_at) / RFU ORM1 (11744905_x_at) / Fold change /veh ORM1 (11744905_x_at) / RFU CCDC152 (11743942_at) / Fold change /veh CCDC152 (11743942_at) / RFU ECM1 (11717891_a_at) / Fold change /veh ECM1 (11717891_a_at) / RFU IL23R (11748794_a_at) / Fold change /veh IL23R (11748794_a_at) / RFU TNFAIP8L3 (11732012_x_at) / Fold change /veh TNFAIP8L3 (11732012_x_at) / RFU MBOAT4 (11741988_at) / Fold change /veh MBOAT4 (11741988_at) / RFU 11764193_at / Fold change /veh 11764193_at / RFU TMEM53 (11763286_at) / Fold change /veh TMEM53 (11763286_at) / RFU MAGEB2 (11727129_at) / Fold change /veh MAGEB2 (11727129_at) / RFU TMEM200A (11744735_a_at) / Fold change /veh TMEM200A (11744735_a_at) / RFU CCDC152 (11751479_a_at) / Fold change /veh CCDC152 (11751479_a_at) / RFU FAM211A (11726209_a_at) / Fold change /veh FAM211A (11726209_a_at) / RFU RGS16 (11746705_a_at) / Fold change /veh RGS16 (11746705_a_at) / RFU VCAN (11755009_s_at) / Fold change /veh VCAN (11755009_s_at) / RFU RHOB (11743442_s_at) / Fold change /veh RHOB (11743442_s_at) / RFU RGS16 (11720943_a_at) / Fold change /veh RGS16 (11720943_a_at) / RFU RGS16 (11720944_at) / Fold change /veh RGS16 (11720944_at) / RFU, VPS4B / Fold change vs veh, VPS4B / RFU, CREB1 / Fold change vs veh, CREB1 / RFU, DNAJC13 / Fold change vs veh, DNAJC13 / RFU, GNAQ / Fold change vs veh, GNAQ / RFU, CDK5R1 / Fold change vs veh, CDK5R1 / RFU, ZRANB3 / Fold change vs veh, ZRANB3 / RFU, CUL4A / Fold change vs veh, CUL4A / RFU, CCNY / Fold change vs veh, CCNY / RFU, UFL1 / Fold change vs veh, UFL1 / RFU, COG3 / Fold change vs veh, COG3 / RFU, DIAPH2 / Fold change vs veh, DIAPH2 / RFU, SKA2 / Fold change vs veh, SKA2 / RFU, AFF3 / Fold change vs veh, AFF3 / RFU, LMF1 / Fold change vs veh, LMF1 / RFU, IPO11 / Fold change vs veh, IPO11 / RFU, DFFB / Fold change vs veh, DFFB / RFU, FOXP1 / Fold change vs veh, FOXP1 / RFU, CARD8 / Fold change vs veh, CARD8 / RFU, STRN3 / Fold change vs veh, STRN3 / RFU, ADK / Fold change vs veh, ADK / RFU, RASSF2 / Fold change vs veh, RASSF2 / RFU, WIPF1 / Fold change vs veh, WIPF1 / RFU, LARP1B / Fold change vs veh, LARP1B / RFU, RASA1 / Fold change vs veh, RASA1 / RFU, RB1 / Fold change vs veh, RB1 / RFU, PPFIA1 / Fold change vs veh, PPFIA1 / RFU, MAT2A / Fold change vs veh, MAT2A / RFU, CCT5 / Fold change vs veh, CCT5 / RFU, WDR92 / Fold change vs veh, WDR92 / RFU, CUX1 / Fold change vs veh, CUX1 / RFU, TTC7A / Fold change vs veh, TTC7A / RFU, TMEM135 / Fold change vs veh, TMEM135 / RFU, DEPTOR / Fold change vs veh, DEPTOR / RFU, CPM / Fold change vs veh, CPM / RFU, DNAJB6 / Fold change vs veh, DNAJB6 / RFU, CACNA2D3 / Fold change vs veh, CACNA2D3 / RFU, DTX4 / Fold change vs veh, DTX4 / RFU, TFCP2 / Fold change vs veh, TFCP2 / RFU, GMCL1 /// GMCL1P1 / Fold change vs veh, GMCL1 /// GMCL1P1 / RFU, AEBP2 / Fold change vs veh, AEBP2 / RFU, SNHG1 /// SNORD22 /// SNORD25 /// SNORD26 /// SNORD27 /// SNORD28 /// SNORD29 /// SNORD31 / Fold change vs veh, SNHG1 /// SNORD22 /// SNORD25 /// SNORD26 /// SNORD27 /// SNORD28 /// SNORD29 /// SNORD31 / Fold change (Aza/veh), C12orf56 (ProbeSet 11735607_a_at) / Fold change (ACY-1035/veh), C12orf56 (ProbeSet 11735607_a_at) / Fold change (Aza/veh), FGFR1OP (ProbeSet 11751329_s_at) / Fold change (ACY-1035/veh), FGFR1OP (ProbeSet 11751329_s_at) / Fold change (Aza/veh), VPS36 (ProbeSet 11739960_a_at) / Fold change (ACY-1035/veh), VPS36 (ProbeSet 11739960_a_at) / RFU SYPL1 (11715823_x_at) / Fold change /veh SYPL1 (11715823_x_at) / RFU IGFBP7 (11715501_s_at) / Fold change /veh IGFBP7 (11715501_s_at) / RFU REEP3 (11722064_at) / Fold change /veh REEP3 (11722064_at) / RFU IGLL1 (11728026_x_at) / Fold change /veh IGLL1 (11728026_x_at): dose or concentration left out as unconfirmed. The conditions noted are these: MV-4-11 cells, 48 hours.

With `Nc1ncn([C@@H]2O[C@H](CO)[C@@H](O)[C@H]2O)c(=O)n1` [azacitidine], the “Fold change /veh CDHR5 (11726645_a_at)” value is reported as 1.19.
